Source: the supplement of paper PMC10307832

Tests used:
Experiment in all cases: relative viability (nuclei count vs DMSO), 5 days (fraction); higher = more cells survive
COR-L 105 = test system: COR-L 105
Procedure, shortened: (§1)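 Cells from lung cancer lines were seeded into 1536-well plates and, one day later, dosed by pin tool. Treatments were either a single drug or a fixed dose of an anchor drug with five library-drug doses (not always all listed) in √10 steps. After 5 days, nuclei were stained in a one-step fixation (final 0.05% Triton X-100, 1% formaldehyde, 1 ug/ml Hoechst) and counted on 4× images, and relative viability is the treated-to-vehicle nuclei ratio, as the median of duplicate plates.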

NCI-H358 = test system: NCI-H358
Procedure, shortened: as §1

HOP-62 = test system: HOP-62
Procedure, shortened: as §1

HCC-44 = test system: HCC-44
Procedure, shortened: as §1

NCI-H2342 = test system: NCI-H2342
Procedure, shortened: as §1

201T = test system: 201T
Procedure, shortened: as §1

NCI-H1437 = test system: NCI-H1437
Procedure, shortened: as §1

NCI-H1666 = test system: NCI-H1666
Procedure, shortened: as §1

EKVX = test system: EKVX
Procedure, shortened: as §1

SW 1573 = test system: SW 1573
Procedure, shortened: as §1

PC-3 [JPC-3] = test system: PC-3 [JPC-3]
Procedure, shortened: as §1

NCI-H2087 = test system: NCI-H2087
Procedure, shortened: as §1

For `Oc1nc(-c2ccc(C(F)(F)F)cc2)nc2c1CSCC2` [XAV939] + Cc1cc(Nc2cc(N3CCN(C)CC3)nc(Sc3ccc(NC(=O)C4CC4)cc3)n2)n[nH]1 [Tozasertib] (partner 0.1 µM), the relative viability (COR-L 105; first compound 0.08 µM) was 0.358, the relative viability (COR-L 105; first compound 0.253 µM) was 0.374 and the relative viability (COR-L 105; first compound 0.8 µM) was 0.349. For the same compound, the relative viability (COR-L 105; first compound 2.53 µM) was 0.343, the relative viability (NCI-H358; first compound 0.08 µM) was 0.112 and the relative viability (NCI-H358; first compound 0.253 µM) was 0.0945. It also gave a relative viability (NCI-H358; first compound 0.8 µM) of 0.0995, a relative viability (NCI-H358; first compound 2.53 µM) of 0.0987 and a relative viability (HOP-62; first compound 0.08 µM) of 0.372. It also gave a relative viability (HOP-62; first compound 0.253 µM) of 0.339, a relative viability (HOP-62; first compound 0.8 µM) of 0.338 and a relative viability (HOP-62; first compound 2.53 µM) of 0.329. The relative viability (HCC-44; first compound 0.08 µM) was 1.46, the relative viability (HCC-44; first compound 0.253 µM) was 0.799 and the relative viability (HCC-44; first compound 0.8 µM) was 0.996. For the same compound, the relative viability (HCC-44; first compound 2.53 µM) was 0.789, the relative viability (NCI-H2342; first compound 0.08 µM) was 0.592 and the relative viability (NCI-H2342; first compound 0.253 µM) was 0.511. The relative viability (NCI-H2342; first compound 0.8 µM) was 0.419, the relative viability (NCI-H2342; first compound 2.53 µM) was 0.301 and the relative viability (201T; first compound 0.08 µM) was 0.99. For the same compound, the relative viability (201T; first compound 0.253 µM) was 0.763, the relative viability (201T; first compound 0.8 µM) was 0.812 and the relative viability (201T; first compound 2.53 µM) was 0.755. For the same compound, the relative viability (NCI-H1437; first compound 0.08 µM) was 0.419, the relative viability (NCI-H1437; first compound 0.253 µM) was 0.335 and the relative viability (NCI-H1437; first compound 0.8 µM) was 0.443. The relative viability (NCI-H1437; first compound 2.53 µM) was 0.414, the relative viability (NCI-H1666; first compound 0.08 µM) was 0.576 and the relative viability (NCI-H1666; first compound 0.253 µM) was 0.565. It also gave a relative viability (NCI-H1666; first compound 0.8 µM) of 0.599, a relative viability (NCI-H1666; first compound 2.53 µM) of 0.582 and a relative viability (EKVX; first compound 0.08 µM) of 0.47. It also gave a relative viability (EKVX; first compound 0.253 µM) of 0.36, a relative viability (EKVX; first compound 0.8 µM) of 0.372 and a relative viability (EKVX; first compound 2.53 µM) of 0.29. The relative viability (SW 1573; first compound 0.08 µM) was 0.174, the relative viability (SW 1573; first compound 0.253 µM) was 0.139 and the relative viability (SW 1573; first compound 0.8 µM) was 0.211. It also gave a relative viability (SW 1573; first compound 2.53 µM) of 0.213, a relative viability (PC-3 [JPC-3]; first compound 0.08 µM) of 0.901 and a relative viability (PC-3 [JPC-3]; first compound 0.253 µM) of 0.833. For the same compound, the relative viability (PC-3 [JPC-3]; first compound 0.8 µM) was 0.857, the relative viability (PC-3 [JPC-3]; first compound 2.53 µM) was 0.744 and the relative viability (NCI-H2087; first compound 0.08 µM) was 0.234. The relative viability (NCI-H2087; first compound 0.253 µM) was 0.231.
